The text below walks through data of patent publication US20260327214A1, “1,3,4-OXADIAZOLE DERIVATIVE COMPOUNDS AS HISTONE DEACETYLASE 6 INHIBITOR, AND USES THEREOF” (CHONG KUN DANG PHARMACEUTICAL CORP., priority 2022, published 2026).

The structures appear in SMILES notation.

Usually IC50 stands for the concentration that gives 50% inhibition.

For one experiment, the target named is T1, human recombinant HDAC1 (Homo sapiens, UniProt Q13547).
T1 construct: purchased Enzo Life Science BML-SE456
The experiment in a line: HDAC1 enzyme activity inhibition test (HDAC Fluorometric Drug Discovery Kit). In kind it is biochemical. To be noted: 30° C., 60 minutes, 10 μM substrate. The method in brief: (§1)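 IC50 derived from fluorescence (Ex 360, Em 460) following 30 min development with Developer II. Each reaction held 0.3 μg human recombinant HDAC1 or HDAC6, 10 μM Fluor de Lys SIRT1 substrate and 5-fold serially diluted compound, incubated 60 min at 30 °C.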

For the next experiment, the target named is T2, human recombinant HDAC6 (Homo sapiens, UniProt Q9UBN7).
T2 construct: purchased Calbiochem 382180
T2 sequence (Q9UBN7 1-1215): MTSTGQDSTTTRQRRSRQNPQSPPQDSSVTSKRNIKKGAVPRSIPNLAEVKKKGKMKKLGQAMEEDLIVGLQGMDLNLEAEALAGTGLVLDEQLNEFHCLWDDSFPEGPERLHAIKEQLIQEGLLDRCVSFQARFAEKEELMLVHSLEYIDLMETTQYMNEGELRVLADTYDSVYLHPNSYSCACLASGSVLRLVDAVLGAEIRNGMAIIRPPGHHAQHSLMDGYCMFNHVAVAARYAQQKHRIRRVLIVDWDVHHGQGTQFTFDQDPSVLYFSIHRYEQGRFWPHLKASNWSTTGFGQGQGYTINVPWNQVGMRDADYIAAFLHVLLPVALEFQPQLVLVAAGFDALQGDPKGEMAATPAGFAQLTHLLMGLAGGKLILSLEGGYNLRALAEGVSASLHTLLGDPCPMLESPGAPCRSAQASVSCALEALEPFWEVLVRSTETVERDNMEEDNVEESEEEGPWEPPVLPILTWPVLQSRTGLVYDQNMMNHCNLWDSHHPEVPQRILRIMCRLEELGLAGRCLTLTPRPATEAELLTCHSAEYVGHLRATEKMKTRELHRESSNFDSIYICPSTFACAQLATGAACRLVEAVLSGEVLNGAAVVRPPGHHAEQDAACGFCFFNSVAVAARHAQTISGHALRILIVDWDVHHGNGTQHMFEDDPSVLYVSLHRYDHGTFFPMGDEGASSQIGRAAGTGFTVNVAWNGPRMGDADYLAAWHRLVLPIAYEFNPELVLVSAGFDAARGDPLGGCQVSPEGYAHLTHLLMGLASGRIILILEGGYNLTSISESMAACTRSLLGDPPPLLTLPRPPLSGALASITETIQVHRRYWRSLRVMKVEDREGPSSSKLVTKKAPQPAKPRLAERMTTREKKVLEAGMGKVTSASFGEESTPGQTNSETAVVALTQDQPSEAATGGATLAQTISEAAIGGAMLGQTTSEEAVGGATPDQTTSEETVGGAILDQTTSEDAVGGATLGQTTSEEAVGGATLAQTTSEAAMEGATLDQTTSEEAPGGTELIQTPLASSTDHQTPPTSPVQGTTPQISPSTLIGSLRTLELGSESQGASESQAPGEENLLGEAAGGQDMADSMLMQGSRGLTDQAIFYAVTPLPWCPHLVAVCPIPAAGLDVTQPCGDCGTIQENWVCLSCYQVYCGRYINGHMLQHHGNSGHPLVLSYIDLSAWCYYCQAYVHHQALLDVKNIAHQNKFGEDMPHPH
The experiment in a line: HDAC6 enzyme activity inhibition test (HDAC Fluorometric Drug Discovery Kit). In kind it is biochemical. The note with it: for HDAC6 selectivity (fold): HDAC6 over HDAC1; for IC50: human recombinant HDAC6, same protocol as HDAC1. The method in brief:
as §1

T1 sequence (Q13547 whole entry): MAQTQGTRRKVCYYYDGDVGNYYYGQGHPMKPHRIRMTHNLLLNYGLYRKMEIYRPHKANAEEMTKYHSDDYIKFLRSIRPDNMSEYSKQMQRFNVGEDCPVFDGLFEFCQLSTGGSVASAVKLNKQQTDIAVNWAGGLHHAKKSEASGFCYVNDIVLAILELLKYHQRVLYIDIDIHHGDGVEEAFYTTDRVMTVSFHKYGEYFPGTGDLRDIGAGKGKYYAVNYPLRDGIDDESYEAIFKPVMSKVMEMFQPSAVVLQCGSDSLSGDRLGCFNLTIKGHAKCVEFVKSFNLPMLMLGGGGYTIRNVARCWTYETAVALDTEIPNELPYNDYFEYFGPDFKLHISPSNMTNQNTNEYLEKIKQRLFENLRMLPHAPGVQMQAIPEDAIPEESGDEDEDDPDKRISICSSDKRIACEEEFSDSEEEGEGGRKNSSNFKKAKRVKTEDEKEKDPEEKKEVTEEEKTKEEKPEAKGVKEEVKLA

For the molecule `CC(C)N1CCN(Cc2ccc(-c3nn(Cc4ccc(-c5nnc(C(F)F)o5)cn4)c(=S)o3)cc2)CC1` [Compound 77, 3-[[5-[5-(difluoromethyl)-1,3,4-oxadiazol-2-yl]-2-pyridyl]methyl]-5-[4-[(4-isopropylpiperazin-1-yl)methyl]phenyl]-1,3,4-oxadiazol-2-thione], the 50% inhibitory concentration (IC50) is > 50000 nM at human recombinant HDAC1 and 74.7 nM at human recombinant HDAC6. Moreover, the “HDAC6 selectivity (fold)” value on human recombinant HDAC6 stood at 669 fold.
Regarding `CC(C)N1CCN(c2cccc(-c3nn(Cc4ccc(-c5nnc(C(F)F)o5)cn4)c(=S)o3)c2)CC1` [Compound 76, 3-[[5-[5-(difluoromethyl)-1,3,4-oxadiazol-2-yl]-2-pyridyl]methyl]-5-[3-(4-isopropylpiperazin-1-yl)phenyl]-1,3,4-oxadiazol-2-thione], the IC50 was > 50000 nM at human recombinant HDAC1 and 52.9 nM on human recombinant HDAC6. Moreover, the “HDAC6 selectivity (fold)” value on human recombinant HDAC6 was 945 fold.
On the same counts, the results for `CC(C)N1CCC(c2ccc(-c3nn(Cc4ccc(-c5nnc(C(F)F)o5)cn4)c(=O)o3)cc2)CC1` [Compound 30, 3-[[5-[5-(difluoromethyl)-1,3,4-oxadiazol-2-yl]-2-pyridyl]methyl]-5-[4-(1-isopropyl-4-piperidyl)phenyl]-1,3,4-oxadiazol-2-one] are > 50000 nM, 96.5 nM and 518 fold.
On the same counts, the results for `Fc1cc(-c2nnc(C(F)F)o2)cnc1Cn1nc(-c2cccs2)oc1=S` [Compound 51, 3-[[5-[5-(difluoromethyl)-1,3,4-oxadiazol-2-yl]-3-fluoro-2-pyridyl]methyl]-5-(2-thienyl)-1,3,4-oxadiazol-2-thione] are > 50000 nM, 83.2 nM and 601 fold.
For `O=c1oc(-c2cccc(N3CCNCC3)c2)nn1Cc1ccc(-c2nnc(C(F)F)o2)cn1` [Compound 36, 3-[[5-[5-(difluoromethyl)-1,3,4-oxadiazol-2-yl]-2-pyridyl]methyl]-5-(3-piperazin-1-ylphenyl)-1,3,4-oxadiazol-2-one], in that order: > 50000 nM, 78.1 nM and 640 fold.
As to `CN(C)Cc1cc(-c2nn(Cc3ccc(-c4nnc(C(F)F)o4)cn3)c(=S)o2)cs1` [Compound 131, 3-[[5-[5-(difluoromethyl)-1,3,4-oxadiazol-2-yl]-2-pyridyl]methyl]-5-[5-[(dimethylamino)methyl]-3-thienyl]-1,3,4-oxadiazol-2-thione], the IC50 on human recombinant HDAC1 is > 50000 nM. Moreover, on human recombinant HDAC6, the “HDAC6 selectivity (fold)” value is on record as 612 fold and the half-inhibitory concentration (IC50) was found to be 81.7 nM.
For `O=c1oc(-c2cccc(C3CCN(C4COC4)CC3)c2F)nn1Cc1ccc(-c2nnc(C(F)F)o2)cn1` [Compound 26, 3-[[5-[5-(difluoromethyl)-1,3,4-oxadiazol-2-yl]-2-pyridyl]methyl]-5-[2-fluoro-3-[1-(oxetan-3-yl)-4-piperidyl]phenyl]-1,3,4-oxadiazol-2-one], in that order: > 50000 nM, 503 fold and 99.4 nM.
As to `CC(C)N1CCN(Cc2ccc(-c3nn(Cc4ccc(-c5nnc(C(F)F)o5)cn4)c(=O)s3)cc2)CC1` [Compound 66], at human recombinant HDAC1, the IC50 is > 50000 nM. On human recombinant HDAC6, the “HDAC6 selectivity (fold)” value is listed as 1497 fold and the IC50 amounted to 33.4 nM.
For `Cn1ccc2cc(-c3nn(Cc4ccc(-c5nnc(C(F)F)o5)cn4)c(=O)o3)ccc21` [Compound 19], in that order: > 50000 nM, 1511 fold and 33.1 nM.
Regarding `O=C1OCC(c2cccs2)=NN1Cc1ncc(-c2nnc(C(F)F)o2)cc1F` [Compound 70, 3-[[5-[5-(difluoromethyl)-1,3,4-oxadiazol-2-yl]-3-fluoro-2-pyridyl]methyl]-5-(2-thienyl)-6H-1,3,4-oxadiazin-2-one], the IC50 on human recombinant HDAC1 is > 50000 nM. Moreover, at human recombinant HDAC6, the “HDAC6 selectivity (fold)” value was 460 fold and the IC50 amounted to 109 nM.
On the same counts, the results for `CC1CCN(Cc2ccc(-c3nn(Cc4ccc(-c5nnc(C(F)F)o5)cn4)c(=O)o3)c(F)c2)CC1` [Compound 4, 3-[[5-[5-(difluoromethyl)-1,3,4-oxadiazol-2-yl]-2-pyridyl]methyl]-5-[2-fluoro-4-[(4-methyl-1-piperidyl)methyl]phenyl]-1,3,4-oxadiazol-2-one] are > 50000 nM, 595 fold and 84.1 nM.
On the same counts, the results for `CC1CCN(Cc2ccc(-c3nn(Cc4ccc(-c5nnc(C(F)F)o5)cn4)c(=S)o3)cc2)CC1` [Compound 96, 3-[[5-[5-(difluoromethyl)-1,3,4-oxadiazol-2-yl]-2-pyridyl]methyl]-5-[4-[(4-methyl-1-piperidyl)methyl]phenyl]-1,3,4-oxadiazol-2-thione] are > 50000 nM, 1208 fold and 41.4 nM.
Take `O=c1oc(-c2cccc(N3CCN(C4COC4)CC3)c2)nn1Cc1ccc(-c2nnc(C(F)F)o2)cn1` [Compound 40, 3-[[5-[5-(difluoromethyl)-1,3,4-oxadiazol-2-yl]-2-pyridyl]methyl]-5-[3-[4-(oxetane-3-yl)piperazin-1-yl]phenyl]-1,3,4-oxadiazol-2-one]: the IC50 on human recombinant HDAC1 was > 50000 nM. For the same molecule, at human recombinant HDAC6, the “HDAC6 selectivity (fold)” value came to 652 fold and the half-maximal inhibitory concentration (IC50) stood at 76.7 nM.
For `CCN(CC)Cc1cccc(-c2nn(Cc3ncc(-c4nnc(C(F)F)o4)cc3F)c(=S)o2)c1` [Compound 120, 5-[3-(diethylaminomethyl)phenyl]-3-[[5-[5-(difluoromethyl)-1,3,4-oxadiazol-2-yl]-3-fluoro-2-pyridyl]methyl]-1,3,4-oxadiazol-2-thione], in that order: > 50000 nM, 630 fold and 79.5 nM.
For `FC(F)c1nnc(-c2ccc(Cn3nc(-c4cccc(CN5CC[C@H](F)C5)c4)oc3=S)nc2)o1` [Compound 90, 3-[[5-[5-(difluoromethyl)-1,3,4-oxadiazol-2-yl]-2-pyridyl]methyl]-5-[3-[[(3S)-3-fluoropyrrolidin-1-yl]methyl]phenyl]-1,3,4-oxadiazol-2-thione], in that order: > 50000 nM, 835 fold and 59.9 nM.
As to `CC(C)N1CCc2ccc(-c3nn(Cc4ccc(-c5nnc(C(F)F)o5)cn4)c(=O)o3)cc2C1` [Compound 13, 3-[[5-[5-(difluoromethyl)-1,3,4-oxadiazol-2-yl]-2-pyridyl]methyl]-5-(2-isopropyl-3,4-dihydro-1H-isoquinolin-7-yl)-1,3,4-oxadiazol-2-one], the figures for the IC50 at human recombinant HDAC1 and at human recombinant HDAC6 were > 50000 nM and 105 nM, respectively. The “HDAC6 selectivity (fold)” value at human recombinant HDAC6 is 475 fold.
With `CNCc1cccc(-c2nn(Cc3ccc(-c4nnc(C(F)F)o4)cn3)c(=S)o2)c1` [Compound 85, 3-[[5-[5-(difluoromethyl)-1,3,4-oxadiazol-2-yl]-2-pyridyl]methyl]-5-[3-(methylaminomethyl)phenyl]-1,3,4-oxadiazol-2-thione], the half-inhibitory concentration (IC50) on human recombinant HDAC1 was > 50000 nM. Moreover, at human recombinant HDAC6, the “HDAC6 selectivity (fold)” value was found to be 447 fold and the IC50 was 112 nM.
